Measurements as given in ChEMBL document CHEMBL4507303, “Data for DCP probe TP-004” (2021).

How the values were obtained:
[1] = target: Activin receptor type-1 (Homo sapiens) (UniProt Q04771); details: Compound concentration 1000.0 nM
[2] = target: Activin receptor type-2B (Homo sapiens) (UniProt Q13705); details: Compound concentration 1000.0 nM
[3] = target: Ankyrin repeat and protein kinase domain-containing protein 1 (Homo sapiens) (UniProt Q8NFD2); details: Compound concentration 1000.0 nM
[4] = target: Mitogen-activated protein kinase kinase kinase 5 (Homo sapiens) (UniProt Q99683); details: Compound concentration 1000.0 nM
[5] = target: Calcium/calmodulin-dependent protein kinase type 1 (Homo sapiens) (UniProt Q14012); details: Compound concentration 1000.0 nM
[6] = target: Calcium/calmodulin-dependent protein kinase type 1B (Homo sapiens) (UniProt Q6P2M8); details: Compound concentration 1000.0 nM
[7] = target: Cyclin-dependent kinase 4 (Homo sapiens) (UniProt P11802); details: Compound concentration 1000.0 nM
[8] = target: Cyclin-dependent kinase 9 (Homo sapiens) (UniProt P50750); details: Compound concentration 1000.0 nM
[9] = target: Serine/threonine-protein kinase MRCK gamma (Homo sapiens) (UniProt Q6DT37); details: Compound concentration 1000.0 nM
[10] = target: Dual specificity tyrosine-phosphorylation-regulated kinase 1A (Homo sapiens) (UniProt Q13627); details: Compound concentration 1000.0 nM
[11] = system: Epidermal growth factor receptor (Homo sapiens), P00533 [UNDEFINED MUTATION]; details: Compound concentration 1000.0 nM
[12] = system: Epidermal growth factor receptor (Homo sapiens), P00533 [UNDEFINED MUTATION]; details: Compound concentration 1000.0 nM; remark: listed apart in the source
[13] = system: Epidermal growth factor receptor (Homo sapiens), P00533 [UNDEFINED MUTATION]; details: Compound concentration 1000.0 nM; remark: listed apart in the source
[14] = target: Ephrin type-A receptor 7 (Homo sapiens) (UniProt Q15375); details: Compound concentration 1000.0 nM
[15] = target: Mitogen-activated protein kinase 6 (Homo sapiens) (UniProt Q16659); details: Compound concentration 1000.0 nM
[16] = target: Mitogen-activated protein kinase 4 (Homo sapiens) (UniProt P31152); details: Compound concentration 1000.0 nM
[17] = target: Tyrosine-protein kinase Fer (Homo sapiens) (UniProt P16591); details: Compound concentration 1000.0 nM
[18] = target: Fibroblast growth factor receptor 3 (Homo sapiens) (UniProt P22607); details: Compound concentration 1000.0 nM
[19] = target: Fibroblast growth factor receptor 4 (Homo sapiens) (UniProt P22455); details: Compound concentration 1000.0 nM
[20] = target: Beta-adrenergic receptor kinase 1 (Homo sapiens) (UniProt P25098); details: Compound concentration 1000.0 nM
[21] = target: Insulin receptor (Homo sapiens) (UniProt P06213); details: Compound concentration 1000.0 nM
[22] = target: Tyrosine-protein kinase JAK1 (Homo sapiens) (UniProt P23458); details: Compound concentration 1000.0 nM
[23] = target: Serine/threonine-protein kinase LATS1 (Homo sapiens) (UniProt O95835); details: Compound concentration 1000.0 nM
[24] = target: Mitogen-activated protein kinase kinase kinase kinase 4 (Homo sapiens) (UniProt O95819); details: Compound concentration 1000.0 nM
[25] = target: Dual specificity mitogen-activated protein kinase kinase 4 (Homo sapiens) (UniProt P45985); details: Compound concentration 1000.0 nM
[26] = target: Dual specificity mitogen-activated protein kinase kinase 5 (Homo sapiens) (UniProt Q13163); details: Compound concentration 1000.0 nM
[27] = target: Myosin light chain kinase family member 4 (Homo sapiens) (UniProt Q86YV6); details: Compound concentration 1000.0 nM
[28] = target: Mitogen-activated protein kinase kinase kinase 14 (Homo sapiens) (UniProt Q99558); details: Compound concentration 1000.0 nM
[29] = target: Serine/threonine-protein kinase PAK 1 (Homo sapiens) (UniProt Q13153); details: Compound concentration 1000.0 nM
[30] = target: Cyclin-dependent kinase 2 homolog (Plasmodium falciparum (isolate 3D7)) (UniProt P61075); details: Compound concentration 1000.0 nM
[31] = system: Phosphatidylinositol 4,5-bisphosphate 3-kinase catalytic subunit alpha isoform (Homo sapiens), P42336 [C420R]; details: Compound concentration 1000.0 nM
[32] = system: Phosphatidylinositol 4,5-bisphosphate 3-kinase catalytic subunit alpha isoform (Homo sapiens), P42336 [E545A]; details: Compound concentration 1000.0 nM
[33] = target: Phosphatidylinositol 4,5-bisphosphate 3-kinase catalytic subunit beta isoform (Homo sapiens) (UniProt P42338); details: Compound concentration 1000.0 nM
[34] = target: Serine/threonine-protein kinase pim-3 (Homo sapiens) (UniProt Q86V86); details: Compound concentration 1000.0 nM
[35] = system: Proto-oncogene tyrosine-protein kinase receptor Ret (Homo sapiens), P07949 [V804M]; details: Compound concentration 1000.0 nM
[36] = target: Dual serine/threonine and tyrosine protein kinase (Homo sapiens) (UniProt Q6XUX3); details: Compound concentration 1000.0 nM
[37] = target: SNF-related serine/threonine-protein kinase (Homo sapiens) (UniProt Q9NRH2); details: Compound concentration 1000.0 nM
[38] = target: Dual specificity testis-specific protein kinase 1 (Homo sapiens) (UniProt Q15569); details: Compound concentration 1000.0 nM
[39] = target: BDNF/NT-3 growth factors receptor (Homo sapiens) (UniProt Q16620); details: Compound concentration 1000.0 nM
[40] = target: Tyrosine-protein kinase TXK (Homo sapiens) (UniProt P42681); details: Compound concentration 1000.0 nM
[41] = target: Wee1-like protein kinase 2 (Homo sapiens) (UniProt P0C1S8); details: Compound concentration 1000.0 nM
[42] = target: 5-hydroxytryptamine receptor 2A (Homo sapiens) (UniProt P28223); details: Compound concentration 10.0 uM
[43] = target: Alpha-2B adrenergic receptor (Homo sapiens) (UniProt P18089); details: Compound concentration 10.0 uM
[44] = target: Beta-3 adrenergic receptor (Homo sapiens) (UniProt P13945); details: Compound concentration 10.0 uM
[45] = target: Sigma intracellular receptor 2 (Homo sapiens) (UniProt Q5BJF2); details: Compound concentration 10.0 uM

Sequence of Epidermal growth factor receptor (Homo sapiens), P00533 [UNDEFINED MUTATION] (P00533 whole entry, looked up, change not shown): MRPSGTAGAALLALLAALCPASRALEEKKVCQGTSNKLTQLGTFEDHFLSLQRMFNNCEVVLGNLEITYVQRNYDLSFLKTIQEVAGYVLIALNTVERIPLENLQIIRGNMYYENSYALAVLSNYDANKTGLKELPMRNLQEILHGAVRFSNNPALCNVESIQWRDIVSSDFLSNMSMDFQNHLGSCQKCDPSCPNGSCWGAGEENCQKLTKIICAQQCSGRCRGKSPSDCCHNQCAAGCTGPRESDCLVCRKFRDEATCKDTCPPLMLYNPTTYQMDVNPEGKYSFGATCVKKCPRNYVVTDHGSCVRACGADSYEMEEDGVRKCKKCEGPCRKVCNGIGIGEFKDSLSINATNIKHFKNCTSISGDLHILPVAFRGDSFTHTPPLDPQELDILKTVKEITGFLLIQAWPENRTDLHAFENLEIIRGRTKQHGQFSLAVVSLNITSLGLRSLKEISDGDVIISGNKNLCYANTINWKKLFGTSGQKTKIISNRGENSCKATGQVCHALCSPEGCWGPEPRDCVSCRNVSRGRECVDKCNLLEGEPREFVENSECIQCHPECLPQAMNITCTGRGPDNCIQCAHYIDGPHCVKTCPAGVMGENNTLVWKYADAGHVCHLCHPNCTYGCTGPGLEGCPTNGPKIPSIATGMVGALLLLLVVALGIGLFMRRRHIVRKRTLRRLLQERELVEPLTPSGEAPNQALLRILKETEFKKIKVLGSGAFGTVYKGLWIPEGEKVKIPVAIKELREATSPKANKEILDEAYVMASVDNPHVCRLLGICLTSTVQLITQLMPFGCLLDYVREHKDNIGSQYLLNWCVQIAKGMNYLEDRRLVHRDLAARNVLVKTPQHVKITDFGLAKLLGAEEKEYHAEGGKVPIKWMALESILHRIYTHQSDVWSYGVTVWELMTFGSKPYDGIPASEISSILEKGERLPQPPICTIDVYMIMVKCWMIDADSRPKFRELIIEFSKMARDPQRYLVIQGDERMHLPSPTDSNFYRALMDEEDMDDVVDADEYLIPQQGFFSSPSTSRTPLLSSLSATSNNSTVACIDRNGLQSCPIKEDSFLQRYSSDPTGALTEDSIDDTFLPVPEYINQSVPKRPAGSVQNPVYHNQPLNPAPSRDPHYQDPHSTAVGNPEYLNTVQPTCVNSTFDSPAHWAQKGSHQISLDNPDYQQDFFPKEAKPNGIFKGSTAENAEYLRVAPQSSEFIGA
Sequence of Mitogen-activated protein kinase 4 (Homo sapiens) (P31152 whole entry): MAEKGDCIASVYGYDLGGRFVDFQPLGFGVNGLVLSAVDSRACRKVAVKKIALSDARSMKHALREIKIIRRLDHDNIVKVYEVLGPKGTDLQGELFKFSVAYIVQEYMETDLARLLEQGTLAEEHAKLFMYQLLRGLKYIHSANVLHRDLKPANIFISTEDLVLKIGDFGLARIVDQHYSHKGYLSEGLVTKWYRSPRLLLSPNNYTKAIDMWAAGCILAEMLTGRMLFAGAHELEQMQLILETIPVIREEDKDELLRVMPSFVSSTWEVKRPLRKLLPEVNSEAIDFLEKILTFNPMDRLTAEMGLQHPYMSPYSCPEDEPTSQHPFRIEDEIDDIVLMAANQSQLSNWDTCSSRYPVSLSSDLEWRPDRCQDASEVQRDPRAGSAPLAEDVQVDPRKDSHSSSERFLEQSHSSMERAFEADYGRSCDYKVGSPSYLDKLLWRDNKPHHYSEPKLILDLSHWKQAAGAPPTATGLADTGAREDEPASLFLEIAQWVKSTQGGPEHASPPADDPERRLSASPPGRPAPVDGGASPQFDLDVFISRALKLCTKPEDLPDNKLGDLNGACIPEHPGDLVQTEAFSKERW
Sequence of Proto-oncogene tyrosine-protein kinase receptor Ret (Homo sapiens), P07949 [V804M] (P07949 whole entry V804M): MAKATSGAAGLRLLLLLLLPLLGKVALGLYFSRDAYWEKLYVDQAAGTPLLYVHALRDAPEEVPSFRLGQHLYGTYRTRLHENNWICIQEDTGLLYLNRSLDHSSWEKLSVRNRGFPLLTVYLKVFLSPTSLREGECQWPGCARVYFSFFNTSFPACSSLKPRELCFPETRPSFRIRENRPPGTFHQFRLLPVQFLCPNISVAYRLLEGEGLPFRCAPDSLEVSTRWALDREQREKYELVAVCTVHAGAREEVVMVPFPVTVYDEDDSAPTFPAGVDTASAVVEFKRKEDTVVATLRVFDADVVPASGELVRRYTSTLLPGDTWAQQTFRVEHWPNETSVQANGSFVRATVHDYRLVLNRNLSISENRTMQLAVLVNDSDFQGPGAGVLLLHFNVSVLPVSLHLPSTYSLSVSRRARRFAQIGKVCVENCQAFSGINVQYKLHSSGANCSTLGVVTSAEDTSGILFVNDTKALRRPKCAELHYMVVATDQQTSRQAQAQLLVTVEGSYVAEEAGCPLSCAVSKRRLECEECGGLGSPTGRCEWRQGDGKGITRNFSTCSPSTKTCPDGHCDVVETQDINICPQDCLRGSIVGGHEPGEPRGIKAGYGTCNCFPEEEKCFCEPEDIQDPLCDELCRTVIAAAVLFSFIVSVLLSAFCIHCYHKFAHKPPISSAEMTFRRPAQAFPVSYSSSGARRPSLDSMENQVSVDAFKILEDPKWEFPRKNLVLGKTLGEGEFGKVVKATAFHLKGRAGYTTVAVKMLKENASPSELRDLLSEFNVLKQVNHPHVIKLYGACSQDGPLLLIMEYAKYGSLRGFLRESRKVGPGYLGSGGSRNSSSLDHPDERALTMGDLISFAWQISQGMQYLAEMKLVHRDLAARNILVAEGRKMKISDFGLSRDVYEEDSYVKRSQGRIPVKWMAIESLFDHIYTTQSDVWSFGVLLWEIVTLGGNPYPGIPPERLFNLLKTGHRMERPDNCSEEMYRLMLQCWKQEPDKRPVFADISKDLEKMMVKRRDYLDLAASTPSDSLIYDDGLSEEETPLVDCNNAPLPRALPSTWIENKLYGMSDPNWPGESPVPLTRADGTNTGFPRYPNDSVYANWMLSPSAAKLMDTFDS
Sequence of Beta-3 adrenergic receptor (Homo sapiens) (P13945 whole entry, looked up): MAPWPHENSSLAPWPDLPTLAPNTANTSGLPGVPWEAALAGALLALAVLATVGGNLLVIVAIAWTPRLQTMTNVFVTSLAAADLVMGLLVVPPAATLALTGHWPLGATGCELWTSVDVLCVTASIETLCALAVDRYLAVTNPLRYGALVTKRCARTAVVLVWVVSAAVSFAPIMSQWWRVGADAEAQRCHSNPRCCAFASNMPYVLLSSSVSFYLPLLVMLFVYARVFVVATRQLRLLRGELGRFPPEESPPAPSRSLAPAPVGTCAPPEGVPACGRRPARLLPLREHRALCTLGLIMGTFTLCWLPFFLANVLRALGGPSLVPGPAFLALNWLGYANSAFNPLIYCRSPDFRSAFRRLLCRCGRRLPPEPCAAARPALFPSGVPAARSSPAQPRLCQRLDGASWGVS
Sequence of Insulin receptor (Homo sapiens) (P06213 28-758 limits assumed): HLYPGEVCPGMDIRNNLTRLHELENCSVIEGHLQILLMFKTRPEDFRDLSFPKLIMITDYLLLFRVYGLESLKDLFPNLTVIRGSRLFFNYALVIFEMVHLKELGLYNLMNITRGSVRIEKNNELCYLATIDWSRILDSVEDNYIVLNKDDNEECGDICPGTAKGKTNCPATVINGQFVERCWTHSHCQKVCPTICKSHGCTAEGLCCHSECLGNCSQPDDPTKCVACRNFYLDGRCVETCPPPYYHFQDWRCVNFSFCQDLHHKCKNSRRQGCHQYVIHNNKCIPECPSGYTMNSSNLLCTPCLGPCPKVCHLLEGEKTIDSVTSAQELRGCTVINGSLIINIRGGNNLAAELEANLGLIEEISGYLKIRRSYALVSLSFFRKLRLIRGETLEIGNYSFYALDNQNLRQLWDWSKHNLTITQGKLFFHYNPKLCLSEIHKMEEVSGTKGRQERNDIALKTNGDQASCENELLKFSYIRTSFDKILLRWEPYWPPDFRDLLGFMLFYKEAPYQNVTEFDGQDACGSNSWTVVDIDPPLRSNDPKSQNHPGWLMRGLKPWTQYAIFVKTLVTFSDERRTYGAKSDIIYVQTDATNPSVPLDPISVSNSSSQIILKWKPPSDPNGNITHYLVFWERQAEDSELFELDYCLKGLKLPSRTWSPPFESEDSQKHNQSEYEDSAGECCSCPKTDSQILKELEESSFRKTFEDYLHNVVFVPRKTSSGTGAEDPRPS
Sequence of Insulin receptor (Homo sapiens) (P06213 763-1382 limits assumed): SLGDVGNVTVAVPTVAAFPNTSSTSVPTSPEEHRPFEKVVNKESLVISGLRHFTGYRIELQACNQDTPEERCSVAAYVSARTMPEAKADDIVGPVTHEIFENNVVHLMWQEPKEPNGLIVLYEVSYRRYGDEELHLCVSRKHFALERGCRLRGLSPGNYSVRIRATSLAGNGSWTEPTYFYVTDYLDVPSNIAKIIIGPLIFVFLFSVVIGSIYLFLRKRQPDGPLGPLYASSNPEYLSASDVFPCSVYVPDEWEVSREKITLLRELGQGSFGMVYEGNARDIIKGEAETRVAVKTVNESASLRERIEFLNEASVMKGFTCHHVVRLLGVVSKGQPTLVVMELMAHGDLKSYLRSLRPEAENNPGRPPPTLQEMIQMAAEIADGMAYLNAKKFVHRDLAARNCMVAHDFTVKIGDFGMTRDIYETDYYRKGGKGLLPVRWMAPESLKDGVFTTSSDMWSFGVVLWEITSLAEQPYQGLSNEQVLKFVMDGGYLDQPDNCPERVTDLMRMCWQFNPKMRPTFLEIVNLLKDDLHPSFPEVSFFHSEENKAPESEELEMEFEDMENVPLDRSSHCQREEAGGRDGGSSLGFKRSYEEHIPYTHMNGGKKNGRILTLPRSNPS
Sequence of Cyclin-dependent kinase 9 (Homo sapiens) (P50750 whole entry): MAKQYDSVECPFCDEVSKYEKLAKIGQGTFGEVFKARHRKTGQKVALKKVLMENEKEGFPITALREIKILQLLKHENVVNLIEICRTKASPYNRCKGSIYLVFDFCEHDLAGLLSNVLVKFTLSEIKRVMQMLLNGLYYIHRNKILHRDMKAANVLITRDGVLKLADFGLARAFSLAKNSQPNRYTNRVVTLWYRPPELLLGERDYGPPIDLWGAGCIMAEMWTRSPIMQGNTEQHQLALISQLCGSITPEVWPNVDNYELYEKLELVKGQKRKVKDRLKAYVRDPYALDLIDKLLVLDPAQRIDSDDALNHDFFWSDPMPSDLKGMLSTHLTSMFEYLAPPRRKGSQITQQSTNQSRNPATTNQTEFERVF

## Cc1nc(N2CC[C@@H](O)C2)ncc1-c1cc(C(F)(F)F)cc2[nH]ncc12 [TP-004]
[1]
  residual activity: 80%
[2]
  residual activity: 79%
[3]
  residual activity: 85%
[4]
  residual activity: 100%
[5]
  residual activity: 100%
[6]
  residual activity: 90%
[7]
  residual activity: 88%
[8]
  residual activity: 87%
[9]
  residual activity: 100%
[10]
  residual activity: 73%
[11]
  residual activity: 90%
[12]
  residual activity: 83%
[13]
  residual activity: 99%
[14]
  residual activity: 63%
[15]
  residual activity: 83%
[16]
  residual activity: 90%
[17]
  residual activity: 97%
[18]
  residual activity: 100%
[19]
  residual activity: 90%
[20]
  residual activity: 42%
[21]
  residual activity: 100%
[22]
  residual activity: 78%
[23]
  residual activity: 81%
[24]
  residual activity: 82%
[25]
  residual activity: 97%
[26]
  residual activity: 68%
[27]
  residual activity: 100%
[28]
  residual activity: 68%
[29]
  residual activity: 100%
[30]
  residual activity: 61%
[31]
  residual activity: 82%
[32]
  residual activity: 97%
[33]
  residual activity: 60%
[34]
  residual activity: 100%
[35]
  residual activity: 96%
[36]
  residual activity: 88%
[37]
  residual activity: 96%
[38]
  residual activity: 94%
[39]
  residual activity: 53%
[40]
  residual activity: 100%
[41]
  residual activity: 100%
[42]
  inhibition: -5.62%
[43]
  inhibition: 12.5%
[44]
  inhibition: 20.7%
[45]
  inhibition: 45.5%
